Data from patent publication US9040715B2 (priority 2008, dated 2015).
≈ marks a conversion by molar mass, not a printed value.

Experiments:
[1] = test system: Huh7 or HepG2 cell line; assay: MTT assay (cytotoxicity); assay type: cell-based, human; details: 24 hours and 48 hours
Description: The MTT assay is a colorimetric assay that measures the reduction of yellow 3-(4,5-dimethylhiazol-2-yl)-2,5-diphenyl tetrazolium bromide (MTT) by mitochondrial succinate dehydrogenase. The MTT enters the cells and passes into the mitochondria where it is reduced to an insoluble, dark purple, formazan product. The cells are then solubilized with an organic solvent (e.g., isopropanol) and the released, solubilized formazan reagent is measured spectrophotometrically. Since reduction of MTT can only occur in metabolically active cells, the level of activity is a measure of the viability of the cells.
Cells of the Huh7 or HepG2 cell line were seeded in a 96 well plate. The plate was incubated overnight at 37° C. in a humidified incubator, 5% CO2. The test compounds were added to the plate. Different concentrations of drug were tested in triplicate along with a negative control. The final volume was adjusted to 100 μl per well. The plate was incubated overnight at 37° C. in a humidified incubator, 5% CO2. After 24 hours and 48 hours, MTT reagent (5 mg/ml, 10 μl/100 μl per well of the 96 well plate) was added and incubated at 37° C. for 3 hours. After 3 hours, 100 μl of the DMSO solution was added to each well and the plate was rocked at room temperature for 1 hour. The plate was then read on a plate reader at […].

[2] = test system: Huh7 cells; assay: Neutral red uptake assay (cytotoxicity); assay type: cell-based, human
Source text: The neutral red uptake assay is a cytotoxicity test that is based on the ability of viable cells to incorporate and bind the supra-vital dye neutral red in the lysosomes. This weakly cationic dye penetrates cell membranes by non-ionic passive diffusion and concentrates in the lysosomes, where it binds by electrostatic hydrophobic bonds to anionic and phosphate groups of the lysosomal matrix. The dye is then extracted from the viable cells using an acidified ethanol solution, and the absorbance of the solubilized dye is read. When the cell dies or the pH gradient is reduced, the dye is not retained and consequently, the amount of retained dye is proportional to the number of viable cells. Most primary cells and cell lines can be used for this method. The HepG2 and Huh7, two human hepatoma cell lines, were used for this study. The cells were seeded in 96-well tissue culture plates and treated for 48 hours with the compounds. The plates were then incubated for 2 hours with a medium containing neutral red. The cells were subsequently washed, the dye was extracted in each well, and the absorbance was read using a spectrophotometer (FIG. 3 and Table 11).

[3] = test system: Saccharomyces cerevisiae (YPH501); assay: Anti-fungal/anti-yeast activity: MIC50 (broth microdilution) and MFC; assay type: cell-based; details: for MFC / MIC: Saccharomyces cerevisiae; for Activity (fungicidal/fungistatic) / Ratio MFC/MIC: Saccharomyces cerevisiae (YPH501); for MIC: read-out: MIC-50
[4] = test system: Candida albicans (CAF-2); assay: as above; assay type: cell-based; details: for MIC: read-out: MIC-50
Description: (§1) Fluconazole, an ergosterol inhibitor, and the beta-1,3-glucan inhibitor micafungin served as controls (See Tables 1-8).
(§2) The minimum inhibitory concentrations resulting in 50% growth inhibition (MIC50) of […] Candida species (C. albicans, C. tropicalis and C. glabrata, C. lusitaniae, C. parapsilosis, and C. apicola) as well as Aspergillus fumigatus to a set of novel synthetic compounds was determined in accordance with the guidelines in CLSI document M27-A2 (Clinical and Laboratory Standards Institute; Wayne, Pa.). The total volume of cells and drug was 100 μL per microtiter well, and each drug was diluted in RPMI to achieve final concentrations of 0.2-100 μg/ml. Uninoculated cultures were used as a reference standard. Stock inoculum suspensions were prepared from 24 hour cultures on YPD (yeast extract/peptone/dextrose) media at 30° C. For MIC determinations, an inoculum of 1.0×10^3 cells of Candidia and 2.0×10^3 cells of Aspergillus per well were used, and cells in diluted drugs were prepared in RPMI-1640 medium. MICs were determined both visually and spectrophotometrically at 24 hours and 48 h at 550 nm using a micro plate reader. The MIC50 endpoint was measured as the lowest drug concentration resulting in a reduction of growth of 50% or more compared with growth of the control.
(§3) The minimum fungicidal concentrations (MFCs) were determined for each drug-isolate-medium combination as follows. After 48 hours of incubation, 100 μL of each drug-isolate-medium combination (2 plates) was subcultured onto YPD plates (100 μL of solution was spread over the YPD plate). […] The plates were then incubated at 30° C. for 48 hours.
(§4) The in vitro fungicidal activities (MFCs) were determined for each drug-isolate-medium combination as follows. After 48 hours of incubation, 10 μL each drug-isolate-medium combination was spotted onto YPD plates (10 μL of each well is spotted sequentially with positive and negative control wells). […] The plates were then incubated at 30° C. for 48 hours.

[5] = test system: Candida lusitaniae; assay: as above; assay type: cell-based; details: for Activity (fungicidal/fungistatic) / Ratio MFC/MIC: Candida lusitaniae; for MFC / MIC: Clavispora lusitaniae; for MIC: read-out: MIC-50
Description: as §1, §2, §3, §4

[6] = test system: Candida apicola; assay: as above; assay type: cell-based; details: for Activity (fungicidal/fungistatic) / MIC-50 / Ratio MFC/MIC: Candida apicola; for MFC: Starmerella apicola
Description: as §1, §2, §3, §4

[7] = test system: Candida glabrata; assay: as above; assay type: cell-based; details: for Activity (fungicidal/fungistatic) / Ratio MFC/MIC: Candida glabrata; for MFC / MIC: Nakaseomyces glabratus; for MIC: read-out: MIC-50
Description: as §1, §2, §3, §4

[8] = test system: Candida tropicalis; assay: as above; assay type: cell-based; details: for MIC: read-out: MIC-50
Description: as §1, §2, §3, §4

[9] = test system: Candidia parapsilosis; assay: as above; assay type: cell-based; details: for Activity (fungicidal/fungistatic) / Ratio MFC/MIC: Candidia parapsilosis; for MIC: read-out: MIC-50
Description: as §1, §2, §3, §4

[10] = test system: Aspergillus fumigatus; assay: as above; assay type: cell-based
Description: as §1, §2, §3, §4

Compound | Toxicity to mammalian cell lines (MTT assay) [1] | Percentage Viability ([2]; 3.3 μg/mL (approx 1X MIC)) | Percentage Viability ([2]; 10 μg/mL (approx 3X MIC)) | Percentage Viability ([2]; 33 μg/mL (approx 10X MIC)) | Percentage Viability ([2]; 100 μg/mL (approx 30X MIC)) | MFC [3] | Activity (fungicidal/fungistatic) [3] | Ratio MFC/MIC [3] | MIC [3] | Activity (fungicidal/fungistatic) [4] | MFC [4] | Ratio MFC/MIC [4] | MIC [4] | Activity (fungicidal/fungistatic) [5] | Ratio MFC/MIC [5] | MFC [5] | MIC [5] | Activity (fungicidal/fungistatic) [6] | MIC-50 [6] | Ratio MFC/MIC [6] | other results
O=c1c2ccccc2sn1Cc1nnc(Cc2ccccc2)o1 [Compound I-4] | minimally toxic | >100% | >100% | >100% | 75% | 6 µg/mL (≈ 18.6 µM) | fungicidal (An MFC/MIC ratio of less than four indicates that the compound is fungicidal) | 1 | 6 µg/mL (≈ 18.6 µM) | fungicidal (An MFC/MIC ratio of less than four indicates that the compound is fungicidal) | 6.4 µg/mL | 1 | 6.4 µg/mL | fungicidal (An MFC/MIC ratio of less than four indicates that the compound is fungicidal) | 1 | 12.5 µg/mL | 12.5 µg/mL | fungicidal (An MFC/MIC ratio of less than four indicates that the compound is fungicidal) | 12.5 µg/mL | 1 | MFC [6]: 12.5 µg/mL; Activity (fungicidal/fungistatic) [7]: fungicidal (An MFC/MIC ratio of less than four indicates that the compound is fungicidal); Ratio MFC/MIC [7]: 1; MFC [7]: 12.5 µg/mL; MIC [7]: 12.5 µg/mL; Activity (fungicidal/fungistatic) [8]: fungicidal (An MFC/MIC ratio of less than four indicates that the compound is fungicidal); MFC [8]: 12.5 µg/mL; Ratio MFC/MIC [8]: 1; MIC [8]: 12.5 µg/mL; MFC [9]: 12.5 µg/mL; Activity (fungicidal/fungistatic) [9]: fungicidal (An MFC/MIC ratio of less than four indicates that the compound is fungicidal); Ratio MFC/MIC [9]: 1; MIC [9]: 12.5 µg/mL
CC(=O)NNC(=O)Cn1sc2ccccc2c1=O [Compound I-7] | minimally toxic | >100% | >100% | >100% | >100% | 12.5 µg/mL (≈ 47.1 µM) | fungicidal (An MFC/MIC ratio of less than four indicates that the compound is fungicidal) | 1 | 12.5 µg/mL (≈ 47.1 µM) | fungicidal (An MFC/MIC ratio of less than four indicates that the compound is fungicidal) | 6.4 µg/mL | 1 | 6.4 µg/mL | fungicidal (An MFC/MIC ratio of less than four indicates that the compound is fungicidal) | 1 | 12.5 µg/mL | 12.5 µg/mL | fungicidal (An MFC/MIC ratio of less than four indicates that the compound is fungicidal) | 12.5 µg/mL | 1 | MFC [6]: 12.5 µg/mL; Activity (fungicidal/fungistatic) [7]: fungicidal (An MFC/MIC ratio of less than four indicates that the compound is fungicidal); Ratio MFC/MIC [7]: 2; MFC [7]: 50 µg/mL; MIC [7]: 25 µg/mL; Activity (fungicidal/fungistatic) [8]: fungicidal (An MFC/MIC ratio of less than four indicates that the compound is fungicidal); MFC [8]: 12.5 µg/mL; Ratio MFC/MIC [8]: 1; MIC [8]: 12.5 µg/mL; MFC [9]: 12.5 µg/mL; Activity (fungicidal/fungistatic) [9]: fungicidal (An MFC/MIC ratio of less than four indicates that the compound is fungicidal); Ratio MFC/MIC [9]: 1; MIC [9]: 12.5 µg/mL
COc1ccc(Cc2nnc(Cn3sc4ccccc4c3=O)o2)cc1 [Compound I-3] | minimally toxic | >100% | >100% | >100% | >100% | 12.5 µg/mL (≈ 35.4 µM) | fungicidal (An MFC/MIC ratio of less than four indicates that the compound is fungicidal) | 1 | 12.5 µg/mL (≈ 35.4 µM) | fungicidal (An MFC/MIC ratio of less than four indicates that the compound is fungicidal) | 12.5 µg/mL | 1 | 12.5 µg/mL | fungicidal (An MFC/MIC ratio of less than four indicates that the compound is fungicidal) | 2 | 12.5 µg/mL | 6.4 µg/mL | fungicidal (An MFC/MIC ratio of less than four indicates that the compound is fungicidal) | 6.4 µg/mL | 2 | Activity (fungicidal/fungistatic) [10]: fungicidal (An MFC/MIC ratio of less than four indicates that the compound is fungicidal); MFC [10]: 12.5 µg/mL; MIC50 [10]: 6.4 µg/mL; Ratio MFC/MIC [10]: 2; MFC [6]: 12.5 µg/mL; Activity (fungicidal/fungistatic) [7]: fungicidal (An MFC/MIC ratio of less than four indicates that the compound is fungicidal); Ratio MFC/MIC [7]: 2; MFC [7]: 50 µg/mL; MIC [7]: 25 µg/mL; Activity (fungicidal/fungistatic) [8]: fungicidal (An MFC/MIC ratio of less than four indicates that the compound is fungicidal); MFC [8]: 12.5 µg/mL; Ratio MFC/MIC [8]: 2; MIC [8]: 6.4 µg/mL; MFC [9]: 12.5 µg/mL; Activity (fungicidal/fungistatic) [9]: fungicidal (An MFC/MIC ratio of less than four indicates that the compound is fungicidal); Ratio MFC/MIC [9]: 2; MIC [9]: 6.4 µg/mL
